Measurements as given in patent EP0525686A1, “Dimethylacetylacetic acid amides, process for their preparation and pharmaceutical compositions” (LUITPOLD PHARMA GmbH, priority 1991, dated 1993).

Experiments:
[1] = system: Carrageenin-Lösung erzeugte Ödeme der rechten Hinterpfote; experiment: Carrageenan-induced paw oedema test for anti-inflammatory activity; assay type: in vivo, Wistar-Ratten; settings: 200 mg/kg p.o., 30 min before carrageenan; paw volume 3 h after injection; female Wistar rats, n=10
Text: Die Prüfung auf antientzündliche Wirkung (C. A. Winter, E. A. Risley, G. W. Nuss; Proc. Soc. Exp. Biol. Med. 111, 544 (1962)) erfolgte durch mit 0.5 %iger wäßriger Carrageenin-Lösung erzeugte Ödeme der rechten Hinterpfote an Gruppen mit je zehn nüchternen, ca. 150 g schweren weiblichen Wistar-Ratten. Dazu wurden mit einem Plethysmometer die Volumina der markierten rechten Hinterpfote unmittelbar vor und drei Stunden nach der Injektion der Carrageenin-Lösung gemessen. Die zu prüfenden Substanzen wurden 30 Minuten vor Erzeugung des Ödems als Gummi arabicum Suspension mittels einer Schlundsonde p.o. verabreicht. Die Kontrollgruppe erhielt reines Leitungswasser. Die Einzeldosis pro Tier lag bei 200 mg/kg Körpergewicht.
Zur Auswertung wurde die prozentuale Zunahme des Pfotenvolumens für jedes Tier nach folgender Formel berechnet: [formula] dann wurden Mittelwerte und Streuung für alle so berechneten Werte einer Gruppe bestimmt. Der Unterschied zwischen der mit Prüfsubstanz behandelten Versuchs- und der zugehörigen unbehandelten Gruppe wurde nach der Formel [formula] ermittelt. Die statistische Auswertung erfolgte nach den üblichen Verfahren.

[2] = Acute toxicity (LD50), tolerability; settings: in vivo; species and route not given
Protocol: Im Zusammenhang mit der vorliegenden Erfindung wurde überraschend gefunden, daß Substanzen der allgemeinen Formel I wertvolle pharmakologische Eigenschaften aufweisen und insbesondere als antientzündliche Wirkstoffe eingesetzt werden können. Neben der guten Verträglichkeit - die LD50 der Verbindung aus Beispiel 1 liegt beispielsweise bei über 1000 mg/kg - zeichnen sich Verbindungen der allgemeinen Formel I durch nützliche analgetische und antipyretische Eigenschaften aus. Insbesondere eignen sich die erfindungsgemäßen Verbindungen zur Behandlung entzündlicher Erkrankungen bei Mensch und Tier. Die Krankheitsbilder, die mit den erfindungsgemäßen Verbindungen behandelt werden können, umfassen alle entzündlichen Zustände, wie zum Beispiel Entzündungen der Haut wie Radiodermatitis, Psoriasis, Akne, Ekzeme, Entzündungen am Auge wie zum Beispiel Conjunktivitis, Entzündungen im Hals-Nasen-Ohren-Bereichwie zum Beispiel katarralische Infektionen der oberen Luftwege und Sinusitis, entzündliche Erkrankungen des Gefäßsystems wie Thrombophlebitis oder Vaskulitis und Entzündungen des Nervensystems wie zum Beispiel Neuralgien oder Neuritiden. Bevorzugt zu behandelnde entzündliche Erkrankungen sind Entzündungen im Bereich des Bewegungsapparates wie Arthritiden, Arthrose, Tendinitis, Tendopathien, Kontusionen und Distorsionen, Weichteilrheumatismus, Gicht und Lumbalgien. […]

SMILES | % Hemmung [1] [%] | LD50 [2] [mg/kg]
COc1ccccc1NC(=O)CC(=O)C(C)C [Beispiel 1, N-(2-Methoxyphenyl) 4-methylpentan-3-on-säureamid] | 52 | > 1000
CC(C)C(=O)CC(=O)Nc1nccs1 [Beispiel 2, N-(2-Thiazolyl)-4-methylpentan-3-on-säureamid] | 32 | 
COc1ccc(NC(=O)CC(=O)C(C)C)cc1 [Beispiel 3, N-(4-Methoxyphenyl)-4-methylpentan-3-on-säureamid] | 27 | 
COc1ccc(C)cc1NC(=O)CC(=O)C(C)C [Beispiel 4, N-(2-Methoxy-5-methylphenyl)-4-methylpentan-3-on-säureamid] | 26 | 
